Where two headings read alike, the source gives them in different places. Some results are limits rather than exact numbers.

Results on 16 molecules are retold here after publication PMC2783484 (Molecular and biochemical parasitology, 2009).

Data set [1] concerns the target T1, PfENT1 (Plasmodium falciparum, UniProt Q8IDM6). The experiment in a line: Uptake competition vs [3H]hypoxanthine in PfENT1-expressing Xenopus oocytes. In kind it is cell-based. The conditions noted are these: for Ki / competition with uptake of 100 nM [3H]hypoxanthine: 10 min uptake; for Ki: one site fit, Cheng-Prusoff, mean ± SEM; for competition with uptake of 100 nM [3H]hypoxanthine: 2.5 and 10 mM competitor.

The target of data set [2] is T1, PfENT1. As to the kind of experiment: Uptake competition vs [3H]adenosine in PfENT1-expressing Xenopus oocytes. In kind it is cell-based.
For data set [3], the target named is T1, PfENT1. The experiment in a line: Time course of radiolabeled substrate uptake by PfENT1-expressing oocytes. Type of data set: cell-based. The conditions noted are these: […] [3H] substrate.
The target of data set [4] is T1, PfENT1. Particulars: cited from earlier work.
The subject of a further data set is intact parasites. The conditions noted are these: read-out: Km for uptake in intact parasites; Quashie et al. (2008); cited from earlier work.
In the next data set the test system is PfHGXPRT. The conditions noted are these: read-out: Km for HGXPRT; cited from earlier work.
Another data set relates to P. falciparum. The conditions noted are these: cited from earlier work; for concentration toxic to parasite growth: as sole purine source in culture.
Setting [5] is: Ki, Competition vs. [3H]hypoxanthine, 100 nM [3H]hypoxanthine.
[6] abbreviates: read-out: PfENT1 Km, Xenopus oocytes, Carter and coworkers.
Where [7] appears, read: read-out: PfENT1 transport Km, Xenopus oocytes, Parker et al.

T1 sequence (Q8IDM6 whole entry): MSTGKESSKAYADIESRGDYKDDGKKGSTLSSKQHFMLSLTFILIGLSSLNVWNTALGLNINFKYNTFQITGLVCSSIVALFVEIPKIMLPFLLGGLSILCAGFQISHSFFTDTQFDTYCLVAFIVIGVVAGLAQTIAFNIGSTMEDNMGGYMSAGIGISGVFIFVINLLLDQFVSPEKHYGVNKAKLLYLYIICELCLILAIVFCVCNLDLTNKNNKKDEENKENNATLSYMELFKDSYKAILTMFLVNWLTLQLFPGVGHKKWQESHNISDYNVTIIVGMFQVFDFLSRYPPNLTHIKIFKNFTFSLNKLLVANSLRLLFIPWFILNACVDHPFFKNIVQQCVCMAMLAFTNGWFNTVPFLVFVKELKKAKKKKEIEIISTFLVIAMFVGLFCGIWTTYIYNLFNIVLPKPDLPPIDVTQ

The Ki is a dissociation constant, usually derived from enzyme kinetics or from competition with a known ligand. In the case of `O=c1[nH]cnc2cc[nH]c12` [9-Deaza-hypoxanthine, 9-Deazahypoxanthine], the Ki is 710 ± 410 µM at PfENT1 [1] (setting [5]) and 940 ± 270 µM at PfENT1 [2].

For orientation: Km means the substrate concentration at which the rate is half of its maximum. As to `Nc1ncnc2c1ncn2[C@@H]1O[C@H](CO)[C@@H](O)[C@H]1O` [Adenosine], the “uptake per oocyte at 60 min” value on PfENT1 [3] is given as about 7 pmol. The Km on PfENT1 [4] (setting [6]) was 13 µM; on PfENT1 [4] (read-out: PfENT1 adenosine Km, Downie et al.), 1860 µM; at PfENT1 [4] (setting [7]), 320 µM.

Regarding `O=c1[nH]cnc2nc[nH]c12` [Hypoxanthine], the “block of [3H]hypoxanthine uptake” value at PfENT1 [1] (2 mM unlabeled hypoxanthine, 100 nM [3H]hypoxanthine) is ~ 90%. Besides, the Ki on PfENT1 [1] (setting [5]) was determined as 300 ± 32 µM. For the same molecule, the Km with intact parasites is 0.34 µM; on PfENT1 [4] (setting [7]) it was 410 µM; in the data set on PfHGXPRT it was 0.46 µM.

For the molecule `O=c1[nH]cnc2c([C@@H]3N[C@H](CO)[C@@H](O)[C@H]3O)c[nH]c12` [ImmH, Immucillin-H], the “competition with uptake of 100 nM [3H]hypoxanthine” value (“competition with uptake of 100 nM” for short) at PfENT1 [1] is “failed to compete”. In the data set with P. falciparum (10 μM immucillinH in the presence of 10 μM hypoxanthine), the “inhibition of parasite growth” value is “completely inhibited parasite growth”.

For the molecule `Nc1ncnc2c(C3N[C@H](CO)[C@@H](O)[C@H]3O)c[nH]c12` (some centres unmarked) [Immucillin-A], at PfENT1 [1], the “competition with uptake of 100 nM” value was “failed to compete”.

In the case of `Nc1nc2c([C@@H]3N[C@H](CO)[C@@H](O)[C@H]3O)c[nH]c2c(=O)[nH]1` [Immucillin-G], at PfENT1 [1], the “competition with uptake of 100 nM” value is “failed to compete”.

With `Nc1ncnc2c1c(I)cn2[C@@H]1O[C@H](CO)[C@@H](O)[C@H]1O` [Iodotubercidin, 5′-iodotubercidin], the Ki on PfENT1 [1] (setting [5]) amounted to 54 ± 8 µM; at PfENT1 [2] it was 66 ± 15 µM. For the same molecule, the “second site, fold higher apparent affinity” value at PfENT1 [2] (two-site fit vs [3H]adenosine) is 1000 fold.

As for `CSC[C@H]1N[C@@H](c2c[nH]c3c(=O)[nH]cnc23)[C@H](O)[C@@H]1O` [MT-ImmH], in the data set with P. falciparum, the “effect on malaria parasites during in vitro culture” value is “lethal”.

On to `CSC[C@H]1O[C@@H](n2ccc3c(N)ncnc32)[C@H](O)[C@@H]1O` [MT-Tubercidin (10), 5′-methylthiotubercidin], for which the Ki at PfENT1 [1] (read-out: Ki, Competition vs. [3H]hypoxanthine, 100 nM [3H]hypoxanthine) turned out to be 1100 µM.

On to `Nc1ncnc2c1ccn2[C@@H]1O[C@H](CO)[C@@H](O)[C@H]1O` [Tubercidin, 7-deazaadenosine], for which the Ki on PfENT1 [1] (setting [5]) stood at 420 ± 110 µM; at PfENT1 [2], 590 ± 100 µM. For the same molecule, the “IC37, parasite growth inhibition” value with P. falciparum (in vitro culture in RPMI media supplemented with human serum) was 0.4 to 0.7 µM.

In the case of `Nc1ncnc2nc[nH]c12` [adenine], the Km at PfENT1 [4] (setting [7]) is 320 µM.

As for `NC[C@H]1O[C@@H](n2cc(I)c3c(Cl)ncnc32)[C@H](O)[C@@H]1O` [compound 1, 4-Chloro-5-iodo-7-(5-amino-5-deoxy-β-d-ribofuranosyl)pyrrolo[2,3-d]pyrimidine], the inhibitory constant (Ki) at PfENT1 [1] (setting [5]) is 3400 µM; on PfENT1 [2] it was 1200 ± 300 µM. The “increase of transport Ki compared to tubercidin” value at PfENT1 [1] (vs [3H]hypoxanthine) was found to be 8 fold.

`Nc1nc2nc[nH]c2c(=O)[nH]1` [guanine]: the “concentration toxic to parasite growth” value in the data set with P. falciparum was over 50 µM. Also, the Km in the data set on PfHGXPRT is 0.3 µM.

`Nc1nc2c(ncn2[C@@H]2O[C@H](CO)[C@@H](O)[C@H]2O)c(=O)[nH]1` [guanosine]: in the data set with P. falciparum, the “concentration toxic to parasite growth” value was over 50 µM.

For `OC[C@H]1O[C@@H](n2cnc3c(O)ncnc32)[C@H](O)[C@@H]1O` [inosine], the Km on PfENT1 [4] (setting [6]) is 253 µM.

As to `O=c1[nH]c(=O)c2[nH]cnc2[nH]1` [xanthine], in the data set with P. falciparum, the “concentration toxic to parasite growth” value was over 50 µM.
